This note sets out measurements from PMC6591177, “Small Molecule IL-36γ Antagonist as a Novel Therapeutic Approach for Plaque Psoriasis” (Scientific Reports, 2019).

Entries after “also recorded” stand apart in the source; their conditions may differ.

A word on the Kd: it is the concentration at which binding is half-saturated. Usually Ki stands for the dissociation constant of the complex between target and ligand, obtained from inhibition or displacement.

In series [1] the target is T1, human IL-36α (Homo sapiens, UniProt Q9UHA7).
T1 construct: using recombinant truncated proteins
T1 sequence (Q9UHA7 6-158): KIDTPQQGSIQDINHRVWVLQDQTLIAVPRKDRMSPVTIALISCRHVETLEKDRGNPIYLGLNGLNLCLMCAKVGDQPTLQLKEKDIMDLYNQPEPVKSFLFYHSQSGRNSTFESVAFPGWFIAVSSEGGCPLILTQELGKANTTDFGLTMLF
Put plainly: Thermal shift assay / affinity, human IL-36α. In kind it is binding. Particulars: thermal shift assay at 100 μM (Supplementary Fig. 4). The method, then:
Thermal shift assays[30] were performed on a Roche LightCycler 480 instrument using Sypro Orange Dye (Invitrogen). Reactions consisted of 0.5–2 µM purified recombinant protein in PBS, pH 7.4, a 1/500 dilution of the stock Sypro Orange reagent, and 100 µM test compounds, resulting in a final DMSO concentration of 1%. The samples were heated from 20 °C to 95 °C at a rate of 0.25 °C per second.

The subject of series [2] is 3D human skin equivalents. The experiment in a line: IL-36γ induced 3D skin equivalent model. The format is cell-based. The method, then:
Hematoxylin & eosin (H&E) staining and immunohistochemistry (IHC) were performed using a Leica ST5010 autostainer or Leica Bond RX automated immunostainer. Standardized IHC protocols were used for anti-loricrin staining (Abcam AB85679). Stained tissue slides were digitized for image analysis using a Perkin Elmer P250 whole slide digital pathology slide scanner with 20X objective and extended focus scanning parameters. For quantitative analysis, N = 3 raft samples were analyzed per condition for each stain using whole slide digital analysis software (Indica Labs HALO). Staining was normalized to the length of the raft sample analyzed.
3D skin equivalents (SOR-300-FT-CTR) comprised of human neonatal keratinocytes and fibroblasts were purchased from MatTek, equilibrated for one day in proprietary formulated media (SOR-300-FT-CTR-MM) and then treated as indicated. Treatment groups contained hIL-36γ at 300 ng/mL, 10 μM of A-552, 10 μg/mL anti-IL36R antibody, 10 μg/mL IL-36RA, or 10 μg/mL IgG isotype control either alone or in combination with hIL-36γ. Control skin equivalents were treated with media only. Skin equivalents were treated for three days, with media collected for cytokine release studies at day two and replaced with fresh treatment media. After three days the skin equivalents were either placed in 10% neutral buffered formalin solution (for histology) or frozen (for qRT-PCR).
To measure IL-6, IL-8 and CXCL1 release from 3D skin equivalents diluted sample media collected at day 2 of the treatment (see above) was used in conjunction with V-PLEX multiplex immunoassay for IL-6 and IL-8 and a U-PLEX immunoassay for CXCL1 (Meso Scale Discovery) according to the manufacturers’ protocols.
RNA from frozen 3D skin equivalents was isolated using miRNeasy Mini Kit (Qiagen) per the manufacturers’ instructions. For qRT-PCR determination a CFX384 Real-Time System C1000 Touch Thermocycler was used. […] Each transcript measured was presented as a fold change compared to control using the ∆∆CT method as RNA fold increase where RPLP0 was used as a housekeeping gene.

Series [3] has as its target T2, human IL-36β (Homo sapiens, UniProt Q9NZH7).
T2 sequence (Q9NZH7 5-164): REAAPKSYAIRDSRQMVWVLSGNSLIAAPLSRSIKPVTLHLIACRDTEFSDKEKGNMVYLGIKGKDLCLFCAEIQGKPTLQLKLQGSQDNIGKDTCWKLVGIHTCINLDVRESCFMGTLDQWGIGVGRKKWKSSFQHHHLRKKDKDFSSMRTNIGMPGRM
The experiment in a line: Affinity for human IL-36β. The format is binding.

Series [4] in a line: Drug plasma levels / oral exposure in mice. Particulars: mouse, in vivo.
For series [5], the target named is T3, human IL-36γ (Homo sapiens, UniProt Q9NZH8).
T3 construct: His6-SUMO-human IL-36γ (18–169); His6-SUMO (N, cleaved yes); made in house; host or cells: E. coli BL21 (DE3)
T3 sequence (Q9NZH8 18-169): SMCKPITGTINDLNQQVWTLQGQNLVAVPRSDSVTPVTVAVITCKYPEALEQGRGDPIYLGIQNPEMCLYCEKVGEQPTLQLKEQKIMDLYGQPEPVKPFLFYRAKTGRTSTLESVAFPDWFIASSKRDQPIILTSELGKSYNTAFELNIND
The experiment in a line: Isothermal titration calorimetry. In kind it is binding. Particulars: 25 °C, pH 7.5; read-out: KD (ITC). The method, then: All experiments were carried out on a MicroCal^TM Auto-ITC200 at 25 °C in 50 mM HEPES (pH = 7.5), 150 mM NaCl, 0.5 mM TCEP, 2% DMSO. IL-36γ protein solution was buffer exchanged by gel filtration into the isothermal titration calorimetry (ITC) buffer and diluted to 40 µM. The titrations were conducted using an initial injection of 0.2 µL followed by 19 identical injections of 2 µL of 400 µM compound solution. Thermodynamic parameters were calculated using ∆G = ∆H − T∆S = −RTlnKB, where ∆G, ∆H and ∆S are the changes in free energy, enthalpy and entropy of binding respectively. A single binding site model was employed.
On the technique in general: In ITC the heat of successive injections is recorded.

Series [6] relates to human IL-36γ evoked CXCL1 release from Human HaCaT cells. Put plainly: human IL-36γ evoked CXCL1 release, human HaCaT cells. In kind it is cell-based. Particulars: ± S.D. The method, then:
(§1) The immortalized human keratinocyte cell line HaCaT and mouse fibroblast NIH-3T3 cell line were maintained in culture in DMEM with 10% fetal bovine serum and 1% penicillin/streptomycin added (Sigma). Cells were seeded in 96-well tissue culture plates (Corning) at 25,000 cells per well and allowed to adhere and recover overnight at 37 °C in an incubator. Cells were rinsed with PBS (Sigma) and treated with cytokines diluted in 200 μL/well of the medium (DMEM with 0.5% FBS and 1% penicillin/streptomycin) as indicated. In inhibition mode, the agonist concentration used was at the EC80 for chemokine production and the cells were pre-treated with inhibitors for 30 min prior to adding the agonist. After 24 h of treatment, supernatants were collected and IL-8 and CXCL1[28] levels were assessed using a custom immunoassay (Meso Scale Discovery). EC50/IC50 values were estimated from a four-parameter logistic fit using Prism software (GraphPad).

The subject of series [7] is IL-36γ evoked CXCL1 release from Mouse NIH-3T3 cells. The experiment in a line: IL-36γ evoked CXCL1 release, mouse NIH-3T3 cells. In kind it is cell-based. Particulars: human IL-36γ evoked CXCL1 release, ± S.D. The method, then:
as §1

Take `COC(c1ccccc1)(c1ccccc1)[C@H](Oc1nc(C)cc(-c2ccc(C)c(N)c2)n1)C(=O)O` [Compound A-552]: the “binding / affinity to human IL-36α” value in series [1] is given as “do not bind; also recorded: does not show affinity”. Besides, the “effect on hIL-36γ induced changes in morphology, gene expression and cytokine production” value in series [2] (0.3 μg/mL hIL-36γ, 10 μM A-552, 10 μg/mL antibody or IL-36Ra, three days) is “attenuated”. In addition, the “effect on 3D human skin equivalents when treated alone” value in series [2] (without hIL-36γ) was “no appreciable effect”. Further, the “affinity for human IL-36β” value in series [3] is “does not show affinity”. Moreover, the oral bioavailability result in series [4] is reported as “orally bioavailable”. In series [5], the dissociation constant (Kd) was 67.6 ± 6 nM. The values for the Ki in series [6] and in series [7] were 31 ± 22 nM and 54 ± 10 nM, respectively.
